Inhibition data for three molecules are collected here from patent US20220009920A1 (GB005, Inc., priority 2020, published 2022).

Common to all, as to test: Large panel kinase profiling
What all share (assay type): biochemical
Holding throughout (settings): 1 μM test article, 1 mM ATP

One experiment deals with T1, DAPK2 (Homo sapiens, UniProt Q9UIK4).
T1 construct: AssayQuant Technologies, Inc. (service laboratory)
In short, it runs like this: (§1)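 CSox-Sensor fluorescence readout; test article 1 μM, ATP 1 mM, 30° C.; kinetic reads at 1-min intervals, Ex 360/Em 485 nm.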

The next experiment deals with T2, EPHB2 (Homo sapiens, UniProt P29323).
T2 sequence (P29323 19-1055): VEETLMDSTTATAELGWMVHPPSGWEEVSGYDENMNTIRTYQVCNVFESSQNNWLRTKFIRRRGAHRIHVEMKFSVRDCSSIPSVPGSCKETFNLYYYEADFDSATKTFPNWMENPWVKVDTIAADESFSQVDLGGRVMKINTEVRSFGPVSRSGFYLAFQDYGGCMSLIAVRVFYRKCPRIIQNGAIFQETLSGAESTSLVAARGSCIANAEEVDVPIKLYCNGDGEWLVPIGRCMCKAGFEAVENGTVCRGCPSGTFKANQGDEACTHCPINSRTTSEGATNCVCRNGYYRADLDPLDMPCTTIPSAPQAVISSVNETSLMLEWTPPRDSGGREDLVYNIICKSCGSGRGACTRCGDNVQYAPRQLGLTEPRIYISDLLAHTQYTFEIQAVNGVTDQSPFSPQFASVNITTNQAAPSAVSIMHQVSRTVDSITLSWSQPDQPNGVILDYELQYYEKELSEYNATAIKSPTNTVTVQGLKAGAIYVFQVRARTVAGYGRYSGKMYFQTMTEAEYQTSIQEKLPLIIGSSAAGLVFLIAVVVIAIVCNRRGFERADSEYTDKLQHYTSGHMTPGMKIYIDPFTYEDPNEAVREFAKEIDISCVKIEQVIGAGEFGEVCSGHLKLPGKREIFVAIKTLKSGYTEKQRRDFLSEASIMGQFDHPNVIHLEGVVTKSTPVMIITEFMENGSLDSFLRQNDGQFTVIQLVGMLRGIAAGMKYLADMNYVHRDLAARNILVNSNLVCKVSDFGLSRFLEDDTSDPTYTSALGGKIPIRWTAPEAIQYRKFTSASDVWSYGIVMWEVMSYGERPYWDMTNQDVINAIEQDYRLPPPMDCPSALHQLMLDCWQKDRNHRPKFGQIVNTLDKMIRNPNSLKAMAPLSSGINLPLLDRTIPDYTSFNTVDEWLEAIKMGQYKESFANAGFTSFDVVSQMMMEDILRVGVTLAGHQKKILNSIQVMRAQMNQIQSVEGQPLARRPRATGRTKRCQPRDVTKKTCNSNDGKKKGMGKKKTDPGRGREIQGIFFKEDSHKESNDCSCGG
In short, it runs like this:
as §1

Another experiment addresses T3, GRK4 (Homo sapiens, UniProt P32298).
T3 construct: AssayQuant Technologies, Inc. (service provider)
The procedure, abridged: as §1

The next experiment has as its target T4, SGK3 (Homo sapiens, UniProt Q96BR1).
T4 construct: AssayQuant Technologies, Inc. (contract assay)
T4 sequence (Q96BR1 1-496): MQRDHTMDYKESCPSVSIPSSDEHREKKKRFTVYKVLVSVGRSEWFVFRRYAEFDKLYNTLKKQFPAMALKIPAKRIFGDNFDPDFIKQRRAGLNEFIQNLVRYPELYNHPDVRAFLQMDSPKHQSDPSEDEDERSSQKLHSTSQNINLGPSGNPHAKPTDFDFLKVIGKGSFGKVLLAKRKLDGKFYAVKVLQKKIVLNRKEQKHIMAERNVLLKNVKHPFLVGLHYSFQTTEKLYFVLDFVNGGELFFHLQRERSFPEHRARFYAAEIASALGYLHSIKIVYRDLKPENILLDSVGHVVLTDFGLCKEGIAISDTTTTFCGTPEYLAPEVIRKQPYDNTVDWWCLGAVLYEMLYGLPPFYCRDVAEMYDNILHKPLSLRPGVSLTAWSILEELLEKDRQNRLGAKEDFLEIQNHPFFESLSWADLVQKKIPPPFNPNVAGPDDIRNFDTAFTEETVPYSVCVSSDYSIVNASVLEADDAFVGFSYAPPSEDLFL
The procedure, abridged:
as §1

The target in the next experiment is T5, CLK3 (Homo sapiens, UniProt P49761).
T5 construct: AssayQuant Technologies, Inc. (service laboratory)
In short, it runs like this:
as §1

Another experiment has as its target T6, TEK/TIE2 (Homo sapiens, UniProt Q02763).
T6 construct: AssayQuant Technologies, Inc. (contract laboratory that ran the panel)
The procedure, abridged: as §1

The target in another experiment is T7, NUAK1 (Homo sapiens, UniProt O60285).
T7 sequence (O60285 1-661): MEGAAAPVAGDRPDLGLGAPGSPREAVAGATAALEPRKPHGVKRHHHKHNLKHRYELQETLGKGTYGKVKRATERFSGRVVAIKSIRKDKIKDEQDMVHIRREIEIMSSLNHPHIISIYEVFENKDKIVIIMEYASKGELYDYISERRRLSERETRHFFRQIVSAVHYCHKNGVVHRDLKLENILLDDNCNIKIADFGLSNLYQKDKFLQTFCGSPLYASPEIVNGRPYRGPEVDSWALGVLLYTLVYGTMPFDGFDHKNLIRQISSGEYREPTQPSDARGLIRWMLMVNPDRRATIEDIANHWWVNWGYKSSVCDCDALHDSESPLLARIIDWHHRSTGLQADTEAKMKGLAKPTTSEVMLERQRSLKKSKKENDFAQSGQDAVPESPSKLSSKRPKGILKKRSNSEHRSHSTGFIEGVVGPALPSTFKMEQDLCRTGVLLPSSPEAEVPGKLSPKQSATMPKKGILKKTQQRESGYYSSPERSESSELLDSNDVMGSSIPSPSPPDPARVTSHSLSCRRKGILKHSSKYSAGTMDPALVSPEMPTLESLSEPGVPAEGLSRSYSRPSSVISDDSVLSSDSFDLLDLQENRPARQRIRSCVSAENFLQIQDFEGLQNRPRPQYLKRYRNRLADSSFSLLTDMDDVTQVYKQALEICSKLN
The procedure, abridged:
as §1

A further experiment concerns the target LRRK2 (Homo sapiens, UniProt Q5S007). In short, it runs like this: as §1

T3 sequence (P32298 whole entry, species assumed): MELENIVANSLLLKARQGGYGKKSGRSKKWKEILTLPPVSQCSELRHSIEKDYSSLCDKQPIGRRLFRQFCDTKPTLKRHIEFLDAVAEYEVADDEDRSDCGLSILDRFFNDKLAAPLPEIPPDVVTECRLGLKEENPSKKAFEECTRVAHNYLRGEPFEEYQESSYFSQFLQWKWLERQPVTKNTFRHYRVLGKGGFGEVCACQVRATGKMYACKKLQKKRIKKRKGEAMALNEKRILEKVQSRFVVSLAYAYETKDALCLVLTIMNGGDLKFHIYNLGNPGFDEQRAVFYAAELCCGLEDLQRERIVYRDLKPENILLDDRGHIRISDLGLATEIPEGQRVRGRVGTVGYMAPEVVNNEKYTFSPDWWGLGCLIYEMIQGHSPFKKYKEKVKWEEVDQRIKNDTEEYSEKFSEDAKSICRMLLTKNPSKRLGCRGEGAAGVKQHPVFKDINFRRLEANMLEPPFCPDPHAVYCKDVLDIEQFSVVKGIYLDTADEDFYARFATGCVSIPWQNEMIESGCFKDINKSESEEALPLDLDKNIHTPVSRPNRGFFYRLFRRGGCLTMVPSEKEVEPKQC
T6 sequence (Q02763 23-1124): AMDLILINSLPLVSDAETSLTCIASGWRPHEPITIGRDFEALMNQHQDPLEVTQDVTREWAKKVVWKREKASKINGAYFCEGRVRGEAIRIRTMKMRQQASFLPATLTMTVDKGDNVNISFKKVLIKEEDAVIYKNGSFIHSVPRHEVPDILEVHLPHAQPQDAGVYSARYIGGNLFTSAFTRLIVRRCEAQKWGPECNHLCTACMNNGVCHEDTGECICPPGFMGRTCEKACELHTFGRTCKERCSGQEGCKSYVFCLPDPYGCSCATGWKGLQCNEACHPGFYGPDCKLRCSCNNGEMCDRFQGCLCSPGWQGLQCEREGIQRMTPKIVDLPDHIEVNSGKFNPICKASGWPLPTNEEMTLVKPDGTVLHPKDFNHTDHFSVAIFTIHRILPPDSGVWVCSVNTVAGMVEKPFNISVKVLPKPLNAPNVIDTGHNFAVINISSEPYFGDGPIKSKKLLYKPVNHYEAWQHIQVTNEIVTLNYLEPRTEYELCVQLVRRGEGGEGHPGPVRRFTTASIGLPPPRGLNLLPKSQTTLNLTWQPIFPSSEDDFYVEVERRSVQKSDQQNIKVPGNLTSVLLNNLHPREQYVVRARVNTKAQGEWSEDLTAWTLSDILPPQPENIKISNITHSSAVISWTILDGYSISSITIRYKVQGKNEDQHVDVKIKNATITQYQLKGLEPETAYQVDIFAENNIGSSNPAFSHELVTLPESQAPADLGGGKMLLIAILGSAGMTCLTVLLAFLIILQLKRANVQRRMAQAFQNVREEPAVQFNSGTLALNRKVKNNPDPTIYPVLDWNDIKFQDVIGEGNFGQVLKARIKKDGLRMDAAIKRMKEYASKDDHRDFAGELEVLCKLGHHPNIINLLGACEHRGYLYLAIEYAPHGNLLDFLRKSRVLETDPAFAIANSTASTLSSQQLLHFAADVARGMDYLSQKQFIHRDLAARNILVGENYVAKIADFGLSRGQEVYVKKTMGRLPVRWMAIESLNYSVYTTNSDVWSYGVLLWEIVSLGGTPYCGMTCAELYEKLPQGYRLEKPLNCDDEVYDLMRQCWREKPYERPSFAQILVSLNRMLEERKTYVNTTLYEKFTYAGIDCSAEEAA
T5 sequence (P49761 whole entry, species assumed): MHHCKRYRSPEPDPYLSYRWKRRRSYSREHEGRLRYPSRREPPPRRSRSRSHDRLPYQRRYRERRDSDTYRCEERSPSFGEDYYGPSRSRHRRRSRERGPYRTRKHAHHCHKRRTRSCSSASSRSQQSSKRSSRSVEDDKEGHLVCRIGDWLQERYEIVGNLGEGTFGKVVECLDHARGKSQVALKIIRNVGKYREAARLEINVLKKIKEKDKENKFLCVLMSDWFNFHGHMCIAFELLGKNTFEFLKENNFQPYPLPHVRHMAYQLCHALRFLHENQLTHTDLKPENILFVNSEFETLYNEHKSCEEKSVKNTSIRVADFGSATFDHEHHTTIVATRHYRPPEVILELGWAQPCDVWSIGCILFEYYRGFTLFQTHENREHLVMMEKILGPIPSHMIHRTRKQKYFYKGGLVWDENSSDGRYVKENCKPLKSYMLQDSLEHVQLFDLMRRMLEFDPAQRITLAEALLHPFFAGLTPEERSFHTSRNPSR
Sequence of LRRK2 (Q5S007 whole entry, species assumed): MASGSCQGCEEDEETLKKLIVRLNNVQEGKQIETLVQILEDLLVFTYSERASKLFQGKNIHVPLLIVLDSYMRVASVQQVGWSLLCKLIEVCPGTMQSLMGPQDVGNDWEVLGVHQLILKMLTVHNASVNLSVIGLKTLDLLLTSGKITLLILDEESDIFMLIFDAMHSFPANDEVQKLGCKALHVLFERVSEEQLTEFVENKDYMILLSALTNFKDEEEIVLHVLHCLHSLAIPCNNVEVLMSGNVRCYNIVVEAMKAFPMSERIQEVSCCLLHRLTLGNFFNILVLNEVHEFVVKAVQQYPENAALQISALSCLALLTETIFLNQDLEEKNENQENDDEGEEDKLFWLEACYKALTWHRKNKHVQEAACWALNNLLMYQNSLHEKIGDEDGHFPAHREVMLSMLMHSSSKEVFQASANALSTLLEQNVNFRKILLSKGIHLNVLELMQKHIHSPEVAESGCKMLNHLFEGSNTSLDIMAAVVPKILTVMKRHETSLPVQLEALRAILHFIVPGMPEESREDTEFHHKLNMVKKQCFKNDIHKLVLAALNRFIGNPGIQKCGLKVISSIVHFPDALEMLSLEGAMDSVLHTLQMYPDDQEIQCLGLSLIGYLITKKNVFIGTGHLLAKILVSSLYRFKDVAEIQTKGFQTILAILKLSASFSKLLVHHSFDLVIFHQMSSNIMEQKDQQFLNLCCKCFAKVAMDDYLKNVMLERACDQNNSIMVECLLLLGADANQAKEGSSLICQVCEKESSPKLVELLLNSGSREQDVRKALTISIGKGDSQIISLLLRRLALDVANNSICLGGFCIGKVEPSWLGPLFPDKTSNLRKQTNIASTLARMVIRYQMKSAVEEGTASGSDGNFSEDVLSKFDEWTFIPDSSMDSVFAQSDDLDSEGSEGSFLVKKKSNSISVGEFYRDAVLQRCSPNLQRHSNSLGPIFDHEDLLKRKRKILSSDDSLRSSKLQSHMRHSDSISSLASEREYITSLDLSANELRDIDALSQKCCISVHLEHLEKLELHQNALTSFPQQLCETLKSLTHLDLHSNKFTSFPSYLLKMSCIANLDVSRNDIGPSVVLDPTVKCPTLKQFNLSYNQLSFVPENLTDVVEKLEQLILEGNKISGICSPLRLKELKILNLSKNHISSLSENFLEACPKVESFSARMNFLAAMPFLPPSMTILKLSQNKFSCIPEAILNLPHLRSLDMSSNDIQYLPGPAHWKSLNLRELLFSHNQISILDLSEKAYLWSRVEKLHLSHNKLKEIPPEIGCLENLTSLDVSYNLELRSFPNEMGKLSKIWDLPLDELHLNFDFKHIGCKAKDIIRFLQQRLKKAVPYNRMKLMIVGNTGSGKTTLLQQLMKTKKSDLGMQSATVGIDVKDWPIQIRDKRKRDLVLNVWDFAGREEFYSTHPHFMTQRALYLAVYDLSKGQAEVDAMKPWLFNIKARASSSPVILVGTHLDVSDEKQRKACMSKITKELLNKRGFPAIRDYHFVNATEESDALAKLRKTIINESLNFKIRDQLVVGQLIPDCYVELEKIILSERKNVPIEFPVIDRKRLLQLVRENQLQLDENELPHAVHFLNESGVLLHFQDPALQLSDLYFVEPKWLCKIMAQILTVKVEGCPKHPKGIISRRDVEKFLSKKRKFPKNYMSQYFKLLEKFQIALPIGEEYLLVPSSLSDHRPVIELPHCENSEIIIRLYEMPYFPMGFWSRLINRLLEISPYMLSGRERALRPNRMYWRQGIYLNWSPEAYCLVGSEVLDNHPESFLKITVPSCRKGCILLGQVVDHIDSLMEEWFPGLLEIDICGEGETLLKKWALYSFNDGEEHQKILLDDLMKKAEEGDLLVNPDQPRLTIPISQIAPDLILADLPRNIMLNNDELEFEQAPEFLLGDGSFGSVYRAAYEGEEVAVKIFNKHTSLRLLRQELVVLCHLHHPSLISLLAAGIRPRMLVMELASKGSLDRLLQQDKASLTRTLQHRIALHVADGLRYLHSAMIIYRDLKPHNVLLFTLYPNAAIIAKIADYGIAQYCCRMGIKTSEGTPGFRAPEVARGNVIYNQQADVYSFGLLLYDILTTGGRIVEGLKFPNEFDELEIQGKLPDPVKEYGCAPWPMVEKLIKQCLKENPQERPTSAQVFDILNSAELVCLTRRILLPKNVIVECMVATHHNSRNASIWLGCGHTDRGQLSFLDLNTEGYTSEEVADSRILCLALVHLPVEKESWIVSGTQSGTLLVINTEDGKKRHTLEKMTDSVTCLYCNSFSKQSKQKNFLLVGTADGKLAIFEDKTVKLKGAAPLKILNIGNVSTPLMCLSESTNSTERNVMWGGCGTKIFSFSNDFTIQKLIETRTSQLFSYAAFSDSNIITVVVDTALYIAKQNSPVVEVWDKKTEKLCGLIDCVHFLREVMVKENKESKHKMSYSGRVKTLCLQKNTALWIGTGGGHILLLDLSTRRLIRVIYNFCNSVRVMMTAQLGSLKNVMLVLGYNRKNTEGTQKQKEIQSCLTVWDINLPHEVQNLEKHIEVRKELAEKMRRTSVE
T1 sequence (Q9UIK4 whole entry, species assumed): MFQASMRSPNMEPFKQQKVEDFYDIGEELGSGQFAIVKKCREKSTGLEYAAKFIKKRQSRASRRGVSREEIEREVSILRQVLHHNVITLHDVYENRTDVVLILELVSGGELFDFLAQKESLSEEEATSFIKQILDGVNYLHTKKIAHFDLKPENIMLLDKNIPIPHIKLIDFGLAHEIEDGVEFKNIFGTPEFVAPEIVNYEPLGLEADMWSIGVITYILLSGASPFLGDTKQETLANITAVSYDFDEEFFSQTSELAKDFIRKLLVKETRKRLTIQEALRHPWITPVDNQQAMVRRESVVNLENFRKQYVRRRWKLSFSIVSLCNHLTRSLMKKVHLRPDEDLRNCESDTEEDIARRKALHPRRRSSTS

As for `C=CC(=O)N1CCCC(c2c(F)cc(C(N)=O)c3[nH]c4c(c23)CCCCC4)C1` (single isomer, unassigned) [Compound 5-6], the inhibition at 1 µM on DAPK2 is -19.1%; on EPHB2, 21.3%; at GRK4 it was 3.4%; against SGK3, -28.1%; at CLK3, -29.3%; against TEK/TIE2, -11.2%. Further, the inhibition at 1 µM was 3.8% against NUAK1 and -8.9% against LRRK2.
As to `C=CC(=O)N1CCC[C@@H](c2c(F)cc(C(N)=O)c3[nH]c4c(c23)CC2(CC4)CC2)C1` [Compound 6-2, (S)-5-(1-acryloylpiperidin-3-yl)-6-fluoro-1,2,4,9-tetrahydrospiro[carbazole-3,1′-cyclopropane]-8-carboxamide], the inhibition at 1 µM is 13.4% against DAPK2; 11.8% on EPHB2; -53% against GRK4; -19.9% on SGK3; -0.1% on CLK3; 4.6% against TEK/TIE2. Besides, the inhibition at 1 µM on NUAK1 was 13.2%; at LRRK2, -2.7%.
On to `C=CC(=O)N1CCC[C@@H](c2c(F)cc(C(N)=O)c3[nH]c4c(c23)CCC4)C1` [Compound 10-2, (S)-8-(1-acryloylpiperidin-3-yl)-7-fluoro-1,2,3,4-tetrahydrocyclo-penta[b]indole-5-carboxamide], for which the inhibition at 1 µM against DAPK2 is 13.9%; against EPHB2, 0.9%; against GRK4, -36.1%; against SGK3 it was -32.5%; against CLK3, -19.2%; at TEK/TIE2 it was -15.2%. Also, the inhibition at 1 µM against NUAK1 was -9.3%; against LRRK2, -7.2%.

Broadly, the inhibition is the drop in the measured response relative to a control, in per cent.
